# Laboratory results reported in US7371728B2, “Prostate-specific antigen probes for optical imaging” (Kaohsiung Medical University, priority 2005, dated 2008).
# “Also recorded” adds a separate entry of the source. Square brackets hold non-standard residues; d marks the D form. Ends that are not written are not given here. * marks the point of attachment. FITC = O=C1OC2(c3ccc(O)cc3Oc3cc(O)ccc32)c2ccc(NC(=S)*)cc21; Hyp = O=C(O)[C@@H]1C[C@@H](O)CN1; Chg = N[C@H](C(=O)O)C1CCCCC1
# Assays:
# [1] = biological target: T1, prostate-specific antigen (Homo sapiens, UniProt P07288); assay: Quenching and non-quenching study: fluorescence intensity over time after reaction with prostate-specific antigen; format: biochemical; settings: 35 minutes
# T1 sequence (P07288 25-261): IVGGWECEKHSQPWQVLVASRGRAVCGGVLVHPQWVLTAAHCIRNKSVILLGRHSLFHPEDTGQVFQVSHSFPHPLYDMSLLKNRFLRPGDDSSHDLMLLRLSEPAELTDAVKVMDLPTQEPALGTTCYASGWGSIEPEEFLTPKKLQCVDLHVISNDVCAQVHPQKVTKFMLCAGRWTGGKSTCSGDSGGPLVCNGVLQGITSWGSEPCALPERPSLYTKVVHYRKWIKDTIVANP
# Description: FIG. 5. is a fluorescence absorption verse time diagram showing fluorescence intensity of a control peptide probe (×) for a prostate peptide substrate probe Cy-prostate-PGC (▪), control peptide probe (Δ) and a prostate peptide probe in the presence of a prostate-specific antigen (♦) according to the present invention;
# At different time, a prostate peptide substrate and prostate control peptide are reacted with an enzyme of prostate-specific antigen to record its fluorescence spectrum and the results are shown in FIG. 5. […] When the reaction time for the reaction between prostate peptide substrate and the prostate-specific antigen reaches 35 minutes and the signal intensity becomes 5 times as that of the original fluorescence intensity.
# [2] = biological target: T1, prostate-specific antigen; assay: HPLC study of peptide specificity for prostate-specific antigen; format: biochemical; settings: in the presence of prostate-specific antigen enzyme; fluorescence detection 480/525 nm
# Description: The Study of Peptide Specificity for Prostate-Specific Antigen: • The high performance liquid chromatography is used for application in study of peptide separation, peptide purity analysis and specific enzyme-cutting specificity for a peptide substrate. […] The goal of the study of the present invention is to develop prostate peptide substrates and enzymes by in-vitro experiments.
# The chromatographic diagrams of specificity analysis of the prostate peptide substrates and prostate-specific antigen are shown in FIGS. 3 and 4. The conditions of the HPLC are as follows: a reverse C18 chromatography column, mobile phase is methyl alcohol: 1% triethylamine=60:40(v/v), flow rate is 0.5 ml/min. […] There are two peaks in the spectrums if HPLC runs in the presence of the prostate-specific antigen with the retention times being 2.7 and 3.2 min as shown in FIG. 3.
substance,measurement,setting,value
G[Hyp]AS[Chg]QSLMK(FITC)C-NH2 [prostate peptide substrate],fluorescence signal intensity relative to the original fluorescence intensity,[1],5 times
same,cutting of the peptide by prostate-specific antigen (HPLC),[2],can cut Gln-Ser residue; also recorded: one major cut
